Measured values as given in PMC12655172, “Borylated 5-Membered Ring Iminosugars: Synthesis and Biological Evaluation for Glycosidase Inhibition and Anticancer Properties for Application in Boron Neutron Capture Therapy (BNCT)—Part 2” (Pharmaceuticals, 2025).
Like-named read-outs stand apart in the source and are kept apart here.

Columns and labels:
[1] = Sample appearance on sample preparation in water; type: physicochemical; conditions: 1 mL of water was added to 1 mg solid
[2] = tested on: MCF10A (non-tumour derived normal breast cell line); experiment: Cancer screening, MTT growth inhibition; type: cell-based; conditions: 72 h; for GI50: read-out: DOSE RESPONSE GI50 MCF10A Breast (normal)
[3] = tested on: A431 (skin carcinoma); experiment: Cancer screening, MTT growth inhibition; type: cell-based; conditions: for GI50: read-out: DOSE RESPONSE GI50 A431 Skin
Method: (§1) For Table 4, all test agents were prepared as stock solutions ([…]) in dimethyl sulfoxide (DMSO) and stored at −20 °C. Cell lines used in the study included HT29 (colorectal carcinoma), A2780 (ovarian carcinoma), H460 (lung carcinoma), A431 (skin carcinoma), MiaPaCa-2 (pancreatic carcinoma), and SMA560 (spontaneous murine astrocytoma), together with MCF10A (non-tumour derived normal breast cell line). Cell line sources: the HT29, H460, and MiaPaCa-2, together with MCF10A were purchased from ATCC. The A2780 and A431 were purchased from the European Collection of Cell Culture (ECACC). All cell lines were incubated in a humidified atmosphere 5% CO2 at 37 °C. The cancer cell lines were maintained in Dulbecco’s modified Eagle’s medium (DMEM; Sigma, Truganina, Australia) supplemented with foetal bovine serum (10%), sodium pyruvate ([…]), penicillin (100 IUmL^−1), streptomycin (100 µg mL^−1), and L-glutamine ([…]).
(§2) Growth inhibition was determined by plating cells in duplicate in medium (100 µL) at a density of 2500–4000 cells per well in 96-well plates. On day 0 (24 h after plating), when the cells are in logarithmic growth, medium (100 µL) with or without the test agent was added to each well. […] Each data point is the mean ± the standard error of the mean (SEM) calculated from three replicates which were performed on separate occasions and separate cell line passages.

[4] = tested on: H460 (lung carcinoma); experiment: Cancer screening, MTT growth inhibition; type: cell-based; conditions: for GI50: read-out: DOSE RESPONSE GI50 H460 Lung
Method: as §1, §2

[5] = tested on: MIA-Pa-Ca2 (pancreatic carcinoma); experiment: Cancer screening, MTT growth inhibition; type: cell-based; conditions: for GI50: read-out: DOSE RESPONSE GI50 MIA-Pa-Ca2 Pancreatic
Method: as §1, §2

[6] = tested on: A2780 (ovarian carcinoma); experiment: Cancer screening, MTT growth inhibition; type: cell-based; conditions: for GI50: read-out: DOSE RESPONSE GI50 A2780 Ovarian
Method: as §1, §2

[7] = tested on: HT29 (colorectal carcinoma); experiment: Cancer screening, MTT growth inhibition; type: cell-based; conditions: for GI50: read-out: DOSE RESPONSE GI50 HT29 Colon
Method: as §1, §2

[8] = tested on: T1, trehalase (porcine kidney); experiment: Glycosidase inhibition (Table 2 panel); type: biochemical
T1 construct: purchased Sigma-Aldrich; host or cells: porcine kidney
Source text: (§3) The enzymes α-D-glucosidase (yeast), β-D-glucosidases (almond, bovine liver), α-D-galactosidase (coffee beans), β-D-galactosidase (bovine liver), α-D-mannosidase (Jack bean), β-D-mannosidase (snail), α-L-rhamnosidase (P. decumbens), α-L-fucosidase (bovine kidney), trehalase (porcine kidney), β-D-glucuronidases (E. coli, bovine liver), amyloglucosidase (A. niger), para-nitrophenyl glycosides, and various disaccharides were purchased from Sigma-Aldrich Co (St. Louis, MO, USA).
(§4) Brush border membranes were prepared from the rat small intestine according to the method of Kessler et al., and were assayed at pH 6.8 for rat intestinal maltase using maltose. For rat intestinal maltase, porcine kidney trehalase, and A. niger amyloglucosidase activities, the reaction mixture contained maltose ([…]) and the appropriate amount of enzyme, and the incubations were performed for 10–30 min at 37 °C. The reaction was stopped by heating at 100 °C for 3 min. After centrifugation (600 g; 10 min), the resulting reaction mixture was added to the Glucose CII-test Wako (Wako Pure Chemical Ind., Osaka, Japan). The absorbance at 505 nm was measured to determine the amount of the released D-glucose. Other glycosidase activities were determined using an appropriate para-nitrophenyl glycoside as substrate at the optimum pH of each enzyme. The reaction mixture contained the substrate ([…]) and the appropriate amount of enzyme. The reaction was stopped by the addition of Na2CO3 ([…]). The released para-nitrophenol was measured spectrometrically at 400 nm. All reactions were run in […].

[9] = tested on: T2, α-D-galactosidase (coffee beans); experiment: Glycosidase inhibition (Table 2 panel); type: biochemical
T2 construct: purchased Sigma-Aldrich; host or cells: coffee beans
Source text: as §3, §4

[10] = tested on: β-D-glucosidase (almond); experiment: Glycosidase inhibition (Table 2 panel); type: biochemical
Source text: as §3, §4

[11] = target: T3, β-D-glucosidase (bovine liver) (Bos taurus, UniProt F1MNT6); experiment: Glycosidase inhibition (Table 2 panel); type: biochemical
T3 sequence (F1MNT6 1-469): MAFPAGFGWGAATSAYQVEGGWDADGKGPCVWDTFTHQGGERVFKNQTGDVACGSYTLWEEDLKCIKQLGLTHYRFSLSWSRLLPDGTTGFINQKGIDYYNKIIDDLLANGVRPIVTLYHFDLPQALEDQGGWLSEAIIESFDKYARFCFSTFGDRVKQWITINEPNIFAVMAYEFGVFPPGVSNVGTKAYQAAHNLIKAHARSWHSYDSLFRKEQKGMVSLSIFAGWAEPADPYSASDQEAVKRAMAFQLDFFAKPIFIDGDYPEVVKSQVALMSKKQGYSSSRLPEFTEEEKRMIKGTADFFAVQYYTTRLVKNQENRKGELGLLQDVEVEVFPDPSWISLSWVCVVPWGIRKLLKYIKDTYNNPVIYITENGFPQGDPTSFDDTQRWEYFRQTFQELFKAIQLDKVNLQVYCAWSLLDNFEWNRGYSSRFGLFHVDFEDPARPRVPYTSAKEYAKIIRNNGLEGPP
Source text: as §3, §4

[12] = target: α-D-glucosidase (rice) (Oryza sativa subsp. japonica, UniProt Q653V7); experiment: Glycosidase inhibition (Table 2 panel); type: biochemical
Source text: as §3, §4

[13] = tested on: β-D-mannosidase (snail); experiment: Glycosidase inhibition (Table 2 panel); type: biochemical
Source text: as §3, §4

[14] = tested on: α-L-rhamnosidase (P. decumbens); experiment: Glycosidase inhibition (Table 2 panel); type: biochemical
Source text: as §3, §4

[15] = tested on: α-D-glucosidase (rat intestinal maltase); experiment: Glycosidase inhibition (Table 2 panel); type: biochemical
Source text: as §3, §4

α-D-glucosidase (rice), sequence (Q653V7 34-885): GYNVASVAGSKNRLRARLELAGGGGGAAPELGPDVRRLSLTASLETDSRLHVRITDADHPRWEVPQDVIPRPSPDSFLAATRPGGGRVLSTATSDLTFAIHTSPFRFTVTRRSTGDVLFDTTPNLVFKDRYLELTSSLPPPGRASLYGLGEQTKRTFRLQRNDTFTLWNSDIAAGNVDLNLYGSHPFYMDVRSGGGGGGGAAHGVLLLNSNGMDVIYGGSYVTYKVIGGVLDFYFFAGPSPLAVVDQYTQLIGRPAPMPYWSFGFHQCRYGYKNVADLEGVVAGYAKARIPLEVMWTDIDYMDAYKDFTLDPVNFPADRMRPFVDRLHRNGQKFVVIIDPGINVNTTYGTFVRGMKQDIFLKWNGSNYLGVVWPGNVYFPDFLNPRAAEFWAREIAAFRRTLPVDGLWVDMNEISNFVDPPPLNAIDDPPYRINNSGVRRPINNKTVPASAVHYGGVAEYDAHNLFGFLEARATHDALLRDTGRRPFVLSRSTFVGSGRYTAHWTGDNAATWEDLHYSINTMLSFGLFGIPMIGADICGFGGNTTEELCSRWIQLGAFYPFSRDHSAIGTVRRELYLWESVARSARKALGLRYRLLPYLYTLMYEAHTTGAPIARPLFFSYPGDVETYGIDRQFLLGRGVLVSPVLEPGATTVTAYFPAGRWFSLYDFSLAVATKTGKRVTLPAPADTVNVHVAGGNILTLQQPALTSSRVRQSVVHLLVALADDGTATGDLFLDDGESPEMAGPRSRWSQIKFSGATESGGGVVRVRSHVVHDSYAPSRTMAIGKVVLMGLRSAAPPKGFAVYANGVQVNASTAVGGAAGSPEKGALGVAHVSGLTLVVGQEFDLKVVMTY

N-(3-Hydroxyphenyl)-1,4-dideoxy-1,4-imino-L-gulitol [meta 7]
Sample Appearance [1]: In solution | DOSE SCREEN percentage (%) cell growth inhibition MCF10A Breast (normal) ([2]; 25 µM of drug): 31 ± 16% | GI50 [2]: 43 ± 17 µM | DOSE SCREEN percentage (%) cell growth inhibition A431 Skin ([3]; 25 µM of drug, 72 h): 56 ± 6% | GI50 ([3]; 72 h): 17 ± 8.5 µM | DOSE SCREEN percentage (%) cell growth inhibition H460 Lung ([4]; 25 µM of drug, 72 h): 37 ± 3% | GI50 ([4]; 72 h): 47 ± 7 µM | DOSE SCREEN percentage (%) cell growth inhibition MIA-Pa-Ca2 Pancreatic ([5]; 25 µM of drug, 72 h): 39 ± 2% | GI50 ([5]; 72 h): 51 ± 1.5 µM | DOSE SCREEN percentage (%) cell growth inhibition A2780 Ovarian ([6]; 25 µM of drug, 72 h): 48 ± 7% | GI50 ([6]; 72 h): 30 ± 20 µM | DOSE SCREEN percentage (%) cell growth inhibition HT29 Colon ([7]; 25 µM of drug, 72 h): 29 ± 1% | GI50 ([7]; 72 h): 50 µM | inhibition % Trehalase Porcine Kidney ([8]; at 100 μM): ^cNI ^d(0%) | inhibition % Trehalase Porcine Kidney ([8]; at 1000 μM): ^aNI ^b(1.9%) | inhibition % α-D-Galactosidase Coffee Beans ([9]; at 100 μM): ^cNI ^d(1.8%) | inhibition % α-D-Galactosidase Coffee Beans ([9]; at 1000 μM): ^aNI ^b(1.7%) | inhibition % β-D-Glucosidase Almond ([10]; at 100 μM): ^cNI ^d(0%) | inhibition % β-D-Glucosidase Almond ([10]; at 1000 μM): ^aNI ^b(9.6%) | inhibition % β-D-Glucosidase Bovine Liver ([11]; at 100 μM): ^cNI ^d(0%) | inhibition % β-D-Glucosidase Bovine Liver ([11]; at 1000 μM): ^aNI ^b(13.6%) | inhibition % α-D-Glucosidase Rice ([12]; at 100 μM): ^cNI ^d(0%) | inhibition % α-D-Glucosidase Rice ([12]; at 1000 μM): ^aNI ^b(5.0%) | inhibition % β-D-Mannosidase Snail ([13]; at 100 μM): ^cNI ^d(0%) | inhibition % β-D-Mannosidase Snail ([13]; at 1000 μM): ^aNI ^b(0%) | inhibition % α-L-Rhamnosidase P. decumbens ([14]; at 100 μM): ^cNI ^d(3.8%) | inhibition % α-L-Rhamnosidase P. decumbens ([14]; at 1000 μM): ^aNI ^b(2.1%) | inhibition % α-D-Glucosidase Rat Intestinal Maltase ([15]; at 100 μM): ^cNI ^d(0%) | inhibition % α-D-Glucosidase Rat Intestinal Maltase ([15]; at 1000 μM): ^aNI ^b(7.2%)

CC1(C)O[C@H]2O[C@H]3[C@@H]([C@H]2O1)N(Cc1ccccc1B1OC(C)(C)C(C)(C)O1)C[C@H]3O [ortho 2, N-(2-Methylphenylboronic acid pinacol ester)-3,6-dideoxy-3,6-imino-1,2-O-isopropylidene-α-D-gulofuranose]
Sample Appearance [1]: In solution | inhibition at 25 µM ([2]; Homo sapiens, MCF-10A, 25 µM of drug, read-out: DOSE SCREEN percentage (%) cell growth inhibition MCF10A Breast (normal)): 9 ± 4% | GI50 ([2]; Homo sapiens, MCF-10A): > 50 µM | inhibition at 25 µM ([3]; Homo sapiens, A-431, 25 µM of drug, 72 h, read-out: DOSE SCREEN percentage (%) cell growth inhibition A431 Skin): 10 ± 5% | GI50 ([3]; Homo sapiens, A-431, 72 h): > 50 µM | inhibition at 25 µM ([4]; Homo sapiens, NCI-H460, 25 µM of drug, 72 h, read-out: DOSE SCREEN percentage (%) cell growth inhibition H460 Lung): 11 ± 4% | GI50 ([4]; Homo sapiens, NCI-H460, 72 h): > 50 µM | inhibition at 25 µM ([5]; Homo sapiens, MIA PaCa-2, 25 µM of drug, 72 h, read-out: DOSE SCREEN percentage (%) cell growth inhibition MIA-Pa-Ca2 Pancreatic): 9 ± 7% | GI50 ([5]; Homo sapiens, MIA PaCa-2, 72 h): > 50 µM | inhibition at 25 µM ([6]; Homo sapiens, A2780, 25 µM of drug, 72 h, read-out: DOSE SCREEN percentage (%) cell growth inhibition A2780 Ovarian): 7 ± 2% | GI50 ([6]; Homo sapiens, A2780, 72 h): > 50 µM | inhibition at 25 µM ([7]; Homo sapiens, HT-29, 25 µM of drug, 72 h, read-out: DOSE SCREEN percentage (%) cell growth inhibition HT29 Colon): 7% | GI50 ([7]; Homo sapiens, HT-29, 72 h): > 50 µM | inhibition % Trehalase Porcine Kidney ([8]; at 100 μM): ^cNI ^d(5.6%) | inhibition % Trehalase Porcine Kidney ([8]; at 1000 μM): ^aNI ^b(1.8%) | inhibition % α-D-Galactosidase Coffee Beans ([9]; at 100 μM): ^cNI ^d(0%) | inhibition % α-D-Galactosidase Coffee Beans ([9]; at 1000 μM): ^aNI ^b(2.9%) | inhibition % β-D-Glucosidase Almond ([10]; at 100 μM): ^cNI ^d(35%) | inhibition % β-D-Glucosidase Almond ([10]; at 1000 μM): ^aNI ^b(7.2%) | inhibition at 100 µM ([11]; at 100 μM): 4.9% | inhibition at 1000 µM ([11]; at 1000 μM): 19.7% | inhibition at 100 µM ([12]; at 100 μM): 0% | inhibition at 1000 µM ([12]; at 1000 μM): 0% | inhibition % β-D-Mannosidase Snail ([13]; at 100 μM): ^cNI ^d(0%) | inhibition % β-D-Mannosidase Snail ([13]; at 1000 μM): ^aNI ^b(7.8%) | inhibition % α-L-Rhamnosidase P. decumbens ([14]; at 100 μM): ^cNI ^d(1.5%) | inhibition % α-L-Rhamnosidase P. decumbens ([14]; at 1000 μM): ^aNI ^b(2.0%) | inhibition % α-D-Glucosidase Rat Intestinal Maltase ([15]; at 100 μM): ^cNI ^d(15.5%) | inhibition % α-D-Glucosidase Rat Intestinal Maltase ([15]; at 1000 μM): ^aNI ^b(0%)
